A value given as a limit tells only on which side of the number the result lay.

Assay [1] concerns BT-549. Put plainly: NCI 60 single concentration growth inhibition. The conditions noted are these: Homo sapiens, BT-549, Breast cancer, read-out: GI%. Type of assay: cell-based, human. The gist of the method:
(§1)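 Suspension cells such as leukaemia lines are fixed with 80% TCA added to settled cells, to 16% final, while other lines are fixed at 10% TCA. Both are then SRB-stained after 48 h of drug exposure at 37 °C.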

Assay [2] concerns CAKI-1. As to the kind of experiment: NCI 60 single concentration growth inhibition. Type of assay: cell-based, human. The conditions noted are these: Homo sapiens, CAKI-1, Renal cancer, read-out: GI%. The gist of the method: as §1
Assay [3] has as its system CCRF-CEM. Put plainly: NCI 60 single concentration growth inhibition. The conditions noted are these: Homo sapiens, Leukemia, read-out: GI%. The assay is classed as cell-based, human. Summed up: as §1
Assay [4] deals with EKVX. As to the kind of experiment: NCI 60 single concentration growth inhibition. Type of assay: cell-based, human. The conditions noted are these: Homo sapiens, Non-small cell lung cancer, read-out: GI%. Summed up:
as §1

Assay [5] relates to HL-60(TB). As to the kind of experiment: NCI 60 single concentration growth inhibition. The conditions noted are these: Homo sapiens, Leukemia, read-out: GI%. Type of assay: cell-based, human. The gist of the method: as §1
Assay [6] relates to MDA-MB-435. Put plainly: NCI 60 single concentration growth inhibition. The assay is classed as cell-based, human. The conditions noted are these: Homo sapiens, MDA-MB-435, Melanoma, read-out: GI%. The gist of the method:
as §1

Assay [7] concerns OVCAR-5. Put plainly: NCI 60 single concentration growth inhibition. The assay is classed as cell-based, human. The conditions noted are these: Homo sapiens, OVCAR-5, Ovarian cancer, read-out: GI%. The gist of the method:
as §1

Assay [8] concerns SK-MEL-5. As to the kind of experiment: NCI 60 single concentration growth inhibition. Type of assay: cell-based, human. The conditions noted are these: Homo sapiens, SK-MEL-5, Melanoma, read-out: GI%. The gist of the method:
as §1

Assay [9] concerns UACC-62. As to the kind of experiment: NCI 60 single concentration growth inhibition. The settings on record: Homo sapiens, UACC-62, Melanoma, read-out: GI%. Type of assay: cell-based, human. The gist of the method: as §1
In assay [10] the test system is DU-145. As to the kind of experiment: NCI 60 single concentration growth inhibition. The assay is classed as cell-based, human. The settings on record: Homo sapiens, DU-145, Prostate cancer, read-out: GI%. How it is done: (§2) The synthesized dichlorobenzimidazoles 10a–p were assayed for their influence on divers cancer cell lines according to the method presented in the Additional file A.
(§3) 5. Screening of cytotoxic activity against a panel of sixty human tumor cell lines
(§4) The selected compounds by NCI were evaluated for their anticancer activity in a two-stage process. First, these compounds were screened against the full NCI 60 cell lines panel at a single high dose of 10 µM. Then, the output from the single dose screen is reported as a mean graph. […]
(§5) Assay protocol. The human tumor cell lines of the cancer screening panel are grown in RPMI 1640 medium containing 5% fetal bovine serum and 2 mM L-glutamine. For a typical screening experiment, cells are inoculated into 96 well microtiter plates in 100 µL at plating densities ranging from 5000 to 40,000 cells/well depending on the doubling time of individual cell lines. After cell inoculation, the microtiter plates are incubated at 37 °C, 5% CO 2, 95% air and 100% relative humidity for 24 h prior to addition of the experimental drugs.
(§6) After 24 h, two plates of each cell line are fixed in situ with TCA, to represent a measurement of the cell population for each cell line at the time of drug addition (Tz). The experimental drugs are solubilized in dimethyl sulfoxide at 400-fold the desired final maximum test concentration and stored frozen prior to use. At the time of drug addition, an aliquot of frozen concentrate is thawed and diluted to twice the desired final maximum test concentration with complete medium containing 50 µg/mL gentamicin. Additional four, 10-fold or ½ log serial dilutions are made to provide a total of five drug concentrations plus control.
(§7) Aliquots of […] of these different drug dilutions are added to the appropriate microtiter wells already containing […] of medium, resulting in the required final drug concentrations.
(§8) Following drug addition, the plates are incubated for an additional 48 h at 37 °C, 5% CO 2, 95% air, and 100% relative humidity. For adherent cells, the assay is terminated by the addition of cold TCA.
(§9) Cells are fixed in situ by the gentle addition of 50 µL of cold 50% (w/v) TCA (final concentration, 10% TCA) and incubated for 60 min at 4 °C. The supernatant is discarded, and the plates are washed five times with tap water and air dried. Sulforhodamine B (SRB) solution ([…]) at 0.4% (w/v) in 1% acetic acid is added to each well, and plates are incubated for 10 min at room temperature. After staining, unbound dye is removed by washing five times with 1% acetic acid and the plates are air dried. Bound stain is subsequently solubilized with 10 mM trizma base, and the absorbance is read on an automated plate reader at a wavelength of 515 nm. For suspension cells, the methodology is […]
(§10) the same except that the assay is terminated by fixing settled cells at the bottom of the wells by gently adding 50 µl of 80% TCA (final concentration, 16% TCA). Using the seven absorbance measurements [time zero, (Tz), control growth, (C), and test growth in the presence of drug at the five concentration levels (Ti)], the percentage growth is calculated at each of the drug concentrations […]
(§11) Percentage growth inhibition is calculated as: [(Ti Tz)/(C–Tz)] x 100 for concentrations for which Ti>/=Tz and [(Ti-Tz)/Tz] x 100 for concentrations for which Ti < Tz. […]
(§12) Results for each compound were reported as a mean graph of the percent growth of the treated cells when compared to the untreated control cells. There after obtaining the results for one dose assay, analysis of historical Development Therapeutics Programme (DTP) was performed and compounds which satisfies predetermined threshold inhibition criteria is selected for NCI full panel 5 dose assay.

Assay [11] has as its system HOP-92. Put plainly: NCI 60 single concentration growth inhibition. Type of assay: cell-based, human. The conditions noted are these: Homo sapiens, HOP-92, Non-small cell lung cancer, read-out: GI%. On the procedure:
as §2, §3, §4, §5, §6, §7, §8, §9, §10, §11, §12

Assay [12] deals with HT29. As to the kind of experiment: NCI 60 single concentration growth inhibition. The settings on record: Homo sapiens, HT-29, HT29, Colon cancer, read-out: GI%. The assay is classed as cell-based, human. On the procedure:
as §2, §3, §4, §5, §6, §7, §8, §9, §10, §11, §12

Assay [13] concerns NCI-H460. Put plainly: NCI 60 single concentration growth inhibition. The settings on record: Homo sapiens, NCI-H460, Non-small cell lung cancer, read-out: GI%. Type of assay: cell-based, human. On the procedure:
as §2, §3, §4, §5, §6, §7, §8, §9, §10, §11, §12

In assay [14] the test system is OVCAR-3. Put plainly: NCI 60 single concentration growth inhibition. The conditions noted are these: Homo sapiens, OVCAR-3, Ovarian cancer, read-out: GI%. Type of assay: cell-based, human. On the procedure: as §2, §3, §4, §5, §6, §7, §8, §9, §10, §11, §12
In assay [15] the test system is OVCAR-4. Put plainly: NCI 60 single concentration growth inhibition. Type of assay: cell-based, human. The settings on record: Homo sapiens, OVCAR-4, Ovarian cancer, read-out: GI%. How it is done:
as §2, §3, §4, §5, §6, §7, §8, §9, §10, §11, §12

The test system of assay [16] is SNB-19. As to the kind of experiment: NCI 60 single concentration growth inhibition. The assay is classed as cell-based, human. The settings on record: Homo sapiens, SNB-19, CNS cancer, read-out: GI%. On the procedure: as §2, §3, §4, §5, §6, §7, §8, §9, §10, §11, §12
For assay [17], the system named is TK-10. As to the kind of experiment: NCI 60 single concentration growth inhibition. The assay is classed as cell-based, human. The conditions noted are these: Homo sapiens, TK-10, Renal cancer, read-out: GI%. On the procedure: as §2, §3, §4, §5, §6, §7, §8, §9, §10, §11, §12
Assay [18] concerns NCI 60 cancer cell line panel. As to the kind of experiment: NCI 60 single concentration growth inhibition, panel mean. The assay is classed as cell-based. The conditions noted are these: Homo sapiens, mean over NCI 60 panel, read-out: Mean GI%. On the procedure:
as §2, §3, §4
at five different minimal concentrations.
as §5, §6, §7, §8, §9, §10
Percentage growth inhibition is calculated as: [(Ti Tz)/(C–Tz)] x 100 for concentrations for which Ti>/=Tz and [(Ti-Tz)/Tz] x 100 for concentrations for which Ti < Tz.
Three dose response parameters are calculated for each experimental agent. Growth […]
concentration resulting in a 50% reduction in the net protein increase (as measured by SRB staining) in control cells during the drug incubation. The drug concentration resulting in total growth inhibition (TGI) is calculated from Ti = Tz. […]
reduction in the measured protein at the end of the drug treatment as compared to that at the beginning) indicating a net loss of cells following treatment is calculated from [(Ti–Tz)/Tz] x 100 =
_50. Values are calculated for each of these three parameters if the level of activity is reached; […]

Regarding `COc1ccc(-c2nc3cc(Cl)c(Cl)cc3n2CC(=O)NN=Cc2ccc(OCC(=O)O)cc2)cc1` [Compound 10f, 2-(4-((2-(2-(5,6-Dichloro-2-(4-methoxyphenyl)-1H-benzo[d]imidazol-1-yl)acetyl)hydrazono)methyl)phenoxy)acetic acid], the inhibition at 10 µM in assay [1] is under 5%; in [2], 15%; in assay [3], under 5%; in assay [4] it was 5.96%; in [5], under 5%; in assay [6], under 5%. Besides, the inhibition at 10 µM in [7], in [8], in [9], in [10], in assay [11] and in assay [12] was under 5% throughout. Moreover, the inhibition at 10 µM in assay [13], in [14], in assay [15], in assay [16], in assay [17] and in assay [18] was under 5% throughout.

In the case of `COC(=O)COc1cccc(C=NNC(=O)Cn2c(-c3ccc(OC)cc3)nc3cc(Cl)c(Cl)cc32)c1` [Compound 10g, Methyl-2-(3-((2-(2-(5,6-dichloro-2-(4-methoxyphenyl)-1H-benzo[d]imidazol-1-yl)acetyl)hydrazono)methyl)phenoxy)acetate], the inhibition at 10 µM in assay [1] was under 5%; in assay [2], 10.5%; in [3], 20.9%; in assay [4], 13.2%; in assay [5], under 5%; in assay [6] it was 11.9%. Further, the inhibition at 10 µM was under 5% in assay [7]; 8.95% in [8]; under 5% in [9]; 110% in assay [10]; 5.5% in [11]; 51.7% in assay [12]. Also, the inhibition at 10 µM in assay [13] was under 5%; in assay [14] it was under 5%; in [15], under 5%; in assay [16] it was under 5%; in assay [17], under 5%; in assay [18], 14.6%.

Consider `COC(=O)COc1ccc(C=NNC(=O)Cn2c(-c3ccc(OC)cc3)nc3cc(Cl)c(Cl)cc32)cc1` [Compound 10h, Methyl-2-(4-((2-(2-(5,6-dichloro-2-(4-methoxyphenyl)-1H-benzo[d]imidazol-1-yl)acetyl)hydrazono)methyl)phenoxy)acetate], for which the inhibition at 10 µM is 6.87% in assay [1]; 5.89% in assay [2]; 28.1% in [3]; under 5% in assay [4]; under 5% in [5]; 18.3% in assay [6]. Further, the inhibition at 10 µM is under 5% in assay [7]; under 5% in [8]; under 5% in assay [9]; 158% in assay [10]; 7.02% in assay [11]; 93.4% in assay [12]. Moreover, the inhibition at 10 µM is under 5% in assay [13]; 93% in assay [14]; under 5% in [15]; 8.19% in assay [16]; under 5% in assay [17]; 36.6% in assay [18].

For `CCOC(=O)C(C)Oc1ccc(C=NNC(=O)Cn2c(-c3ccc(OC)cc3)nc3cc(Cl)c(Cl)cc32)cc1` (stereo not drawn) [Compound 10j, Ethyl-2-(4-((2-(2-(5,6-dichloro-2-(4-methoxyphenyl)-1H-benzo[d]imidazol-1-yl)acetyl) hydrazono)methyl)phenoxy)propanoate], the inhibition at 10 µM turned out to be 11.8% in assay [1]; 9.1% in assay [2]; 25.8% in assay [3]; 21.7% in assay [4]; 6.19% in [5]; 24.8% in assay [6]. Also, the inhibition at 10 µM in [7] is under 5%; in assay [8], 25.2%; in [9], 20.1%; in assay [10] it was 85.2%; in assay [11], 15.2%; in [12] it was 39.2%. The inhibition at 10 µM in [13] was under 5%; in assay [14], under 5%; in assay [15], 9.77%; in [16], 11.2%; in assay [17], under 5%; in assay [18], 18.4%.
